Test results from the NIST ThermoML archive (doi:10.1021/je049652j).
Numbers after ± are expanded uncertainties.

Test: molar heat capacity at constant pressure
Conditions: 101.33 kPa, Liquid

Compound | molar heat capacity at constant pressure (284.15 K) [J/K/mol] | molar heat capacity at constant pressure (286.65 K) [J/K/mol] | molar heat capacity at constant pressure (289.15 K) [J/K/mol] | molar heat capacity at constant pressure (291.65 K) [J/K/mol] | molar heat capacity at constant pressure (294.15 K) [J/K/mol] | molar heat capacity at constant pressure (296.65 K) [J/K/mol] | molar heat capacity at constant pressure (299.15 K) [J/K/mol] | molar heat capacity at constant pressure (301.65 K) [J/K/mol] | molar heat capacity at constant pressure (304.15 K) [J/K/mol] | molar heat capacity at constant pressure (306.65 K) [J/K/mol] | molar heat capacity at constant pressure (309.15 K) [J/K/mol] | molar heat capacity at constant pressure (311.65 K) [J/K/mol] | molar heat capacity at constant pressure (314.15 K) [J/K/mol] | molar heat capacity at constant pressure (316.65 K) [J/K/mol] | molar heat capacity at constant pressure (319.15 K) [J/K/mol] | molar heat capacity at constant pressure (321.65 K) [J/K/mol] | molar heat capacity at constant pressure (324.15 K) [J/K/mol] | molar heat capacity at constant pressure (326.65 K) [J/K/mol] | molar heat capacity at constant pressure (329.15 K) [J/K/mol] | molar heat capacity at constant pressure (331.65 K) [J/K/mol] | other results
CCCCCBr [1-bromopentane] | 187.88 ± 0.94 | 188.46 ± 0.94 | 189.17 ± 0.95 | 189.85 ± 0.95 | 190.33 ± 0.95 | 190.94 ± 0.95 | 191.57 ± 0.96 | 192.17 ± 0.96 | 193.01 ± 0.97 | 193.53 ± 0.97 | 194.17 ± 0.97 | 194.86 ± 0.97 | 195.6 ± 0.98 | 196.21 ± 0.98 | 196.98 ± 0.98 | 197.61 ± 0.99 | 198.35 ± 0.99 | 199.09 ± 1 | 199.8 ± 1 | 200.47 ± 1 | molar heat capacity at constant pressure (334.15 K): 201.48 ± 1 J/K/mol; molar heat capacity at constant pressure (336.65 K): 201.57 ± 1 J/K/mol; molar heat capacity at constant pressure (339.15 K): 202.76 ± 1 J/K/mol; molar heat capacity at constant pressure (341.65 K): 203.58 ± 1 J/K/mol; molar heat capacity at constant pressure (344.15 K): 204.33 ± 1 J/K/mol; molar heat capacity at constant pressure (346.65 K): 205.07 ± 1 J/K/mol; molar heat capacity at constant pressure (349.15 K): 205.89 ± 1 J/K/mol; molar heat capacity at constant pressure (351.65 K): 206.69 ± 1 J/K/mol; molar heat capacity at constant pressure (353.15 K): 207.05 ± 1 J/K/mol
CCCCBr [1-bromobutane] | 159.45 ± 0.8 | 159.98 ± 0.8 | 160.53 ± 0.8 | 161.01 ± 0.81 | 161.52 ± 0.81 | 162.08 ± 0.81 | 162.6 ± 0.81 | 163.08 ± 0.82 | 163.72 ± 0.82 | 164.22 ± 0.82 | 164.78 ± 0.82 | 165.34 ± 0.83 | 165.94 ± 0.83 | 166.49 ± 0.83 | 167.09 ± 0.84 | 167.67 ± 0.84 | 168.29 ± 0.84 | 168.83 ± 0.84 | 169.45 ± 0.85 | 170.09 ± 0.85 | molar heat capacity at constant pressure (334.15 K): 170.63 ± 0.85 J/K/mol; molar heat capacity at constant pressure (336.65 K): 171 ± 0.86 J/K/mol; molar heat capacity at constant pressure (339.15 K): 171.94 ± 0.86 J/K/mol; molar heat capacity at constant pressure (341.65 K): 172.57 ± 0.86 J/K/mol; molar heat capacity at constant pressure (344.15 K): 173.26 ± 0.87 J/K/mol; molar heat capacity at constant pressure (346.65 K): 173.89 ± 0.87 J/K/mol; molar heat capacity at constant pressure (349.15 K): 174.51 ± 0.87 J/K/mol; molar heat capacity at constant pressure (351.65 K): 175.19 ± 0.88 J/K/mol; molar heat capacity at constant pressure (353.15 K): 175.47 ± 0.88 J/K/mol
CCCCCCCCCBr [1-bromononane] | 302.55 ± 1.5 | 303.54 ± 1.5 | 304.62 ± 1.5 | 305.57 ± 1.5 | 306.69 ± 1.5 | 307.68 ± 1.5 | 308.8 ± 1.5 | 309.82 ± 1.6 | 310.95 ± 1.6 | 311.91 ± 1.6 | 313.01 ± 1.6 | 314.1 ± 1.6 | 315.18 ± 1.6 | 316.32 ± 1.6 | 317.44 ± 1.6 | 318.7 ± 1.6 | 319.8 ± 1.6 | 320.96 ± 1.6 | 322.16 ± 1.6 | 323.32 ± 1.6 | molar heat capacity at constant pressure (334.15 K): 324.63 ± 1.6 J/K/mol; molar heat capacity at constant pressure (336.65 K): 325 ± 1.6 J/K/mol; molar heat capacity at constant pressure (339.15 K): 326.99 ± 1.6 J/K/mol; molar heat capacity at constant pressure (341.65 K): 328.13 ± 1.6 J/K/mol; molar heat capacity at constant pressure (344.15 K): 329.39 ± 1.6 J/K/mol; molar heat capacity at constant pressure (346.65 K): 330.49 ± 1.6 J/K/mol; molar heat capacity at constant pressure (349.15 K): 331.79 ± 1.7 J/K/mol; molar heat capacity at constant pressure (351.65 K): 333.04 ± 1.7 J/K/mol; molar heat capacity at constant pressure (353.15 K): 333.74 ± 1.7 J/K/mol
CCCCCl [1-chlorobutane] | 156.22 ± 0.78 | 156.75 ± 0.78 | 157.28 ± 0.79 | 157.7 ± 0.79 | 158.27 ± 0.79 | 158.86 ± 0.79 | 159.48 ± 0.8 | 160.05 ± 0.8 | 160.5 ± 0.8 | 161.06 ± 0.81 | 161.59 ± 0.81 | 162.24 ± 0.81 | 162.92 ± 0.81 | 163.42 ± 0.82 | 164.11 ± 0.82 | 164.82 ± 0.82 | 165 ± 0.83 | 165.97 ± 0.83 | 166.72 ± 0.83 | 167.29 ± 0.84 | molar heat capacity at constant pressure (334.15 K): 167.78 ± 0.84 J/K/mol; molar heat capacity at constant pressure (336.65 K): 168.53 ± 0.84 J/K/mol; molar heat capacity at constant pressure (339.15 K): 169.12 ± 0.85 J/K/mol; molar heat capacity at constant pressure (341.65 K): 170.01 ± 0.85 J/K/mol; molar heat capacity at constant pressure (344.15 K): 170.43 ± 0.85 J/K/mol; molar heat capacity at constant pressure (346.65 K): 170.49 ± 0.85 J/K/mol; molar heat capacity at constant pressure (349.15 K): 171.5 ± 0.86 J/K/mol; molar heat capacity at constant pressure (351.65 K): 173.02 ± 0.87 J/K/mol; molar heat capacity at constant pressure (353.15 K): 173.09 ± 0.87 J/K/mol
CCCCCCCCCCCl [1-chlorodecane] | 328.57 ± 1.6 | 329.82 ± 1.6 | 331 ± 1.7 | 332.01 ± 1.7 | 333.14 ± 1.7 | 334.13 ± 1.7 | 335.39 ± 1.7 | 336.61 ± 1.7 | 337.47 ± 1.7 | 338.66 ± 1.7 | 339.83 ± 1.7 | 341.39 ± 1.7 | 342.42 ± 1.7 | 343.41 ± 1.7 | 345.04 ± 1.7 | 346.36 ± 1.7 | 346.99 ± 1.7 | 348.75 ± 1.7 | 350.01 ± 1.8 | 351.31 ± 1.8 | molar heat capacity at constant pressure (334.15 K): 352.76 ± 1.8 J/K/mol; molar heat capacity at constant pressure (336.65 K): 353.39 ± 1.8 J/K/mol; molar heat capacity at constant pressure (339.15 K): 355.52 ± 1.8 J/K/mol; molar heat capacity at constant pressure (341.65 K): 356.17 ± 1.8 J/K/mol; molar heat capacity at constant pressure (344.15 K): 357.74 ± 1.8 J/K/mol; molar heat capacity at constant pressure (346.65 K): 358.38 ± 1.8 J/K/mol; molar heat capacity at constant pressure (349.15 K): 359.65 ± 1.8 J/K/mol; molar heat capacity at constant pressure (351.65 K): 361.49 ± 1.8 J/K/mol; molar heat capacity at constant pressure (353.15 K): 362.49 ± 1.8 J/K/mol
CCCCCCCCl [1-chloroheptane] | 240.95 ± 1.2 | 241.75 ± 1.2 | 242.67 ± 1.2 | 243.4 ± 1.2 | 244.29 ± 1.2 | 245.23 ± 1.2 | 246.05 ± 1.2 | 247.03 ± 1.2 | 247.61 ± 1.2 | 248.53 ± 1.2 | 249.54 ± 1.2 | 250.65 ± 1.2 | 251.6 ± 1.3 | 252.2 ± 1.3 | 253.36 ± 1.3 | 254.42 ± 1.3 | 254.76 ± 1.3 | 256.19 ± 1.3 | 257.57 ± 1.3 | 258.06 ± 1.3 | molar heat capacity at constant pressure (334.15 K): 258.84 ± 1.3 J/K/mol; molar heat capacity at constant pressure (336.65 K): 259.88 ± 1.3 J/K/mol; molar heat capacity at constant pressure (339.15 K): 261.01 ± 1.3 J/K/mol; molar heat capacity at constant pressure (341.65 K): 261.55 ± 1.3 J/K/mol; molar heat capacity at constant pressure (344.15 K): 262.9 ± 1.3 J/K/mol; molar heat capacity at constant pressure (346.65 K): 263.26 ± 1.3 J/K/mol; molar heat capacity at constant pressure (349.15 K): 264.3 ± 1.3 J/K/mol; molar heat capacity at constant pressure (351.65 K): 266.04 ± 1.3 J/K/mol; molar heat capacity at constant pressure (353.15 K): 266.51 ± 1.3 J/K/mol
